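Cultured in 96-well plates, cells were exposed to test compound for 48 hours across five concentrations. TGI denotes the concentration required for complete inhibition of growth.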
Experiments:
Assay in all cases: NCI tumour cell line growth inhibition, 48 h
A498 renal = test system: A498 renal
A549 NSCLC = test system: A549 NSCLC
CAKI-1 renal = test system: CAKI-1 renal
CCRF-CEM leukemia = test system: CCRF-CEM leukemia
COLO 205 colon = test system: COLO 205 colon
DLD-1 colon = test system: DLD-1 colon
DMS 114 small cell lung = test system: DMS 114 small cell lung
DMS 273 small cell lung = test system: DMS 273 small cell lung
EKVX NSCLC = test system: EKVX NSCLC
HCC-2998 colon = test system: HCC-2998 colon
HCT-116 colon = test system: HCT-116 colon
HCT-15 colon = test system: HCT-15 colon
HOP-18 NSCLC = test system: HOP-18 NSCLC
HOP-62 NSCLC = test system: HOP-62 NSCLC
HOP-92 NSCLC = test system: HOP-92 NSCLC
HT29 colon = test system: HT29 colon
IGROV1 ovarian = test system: IGROV1 ovarian
K-562 leukemia = test system: K-562 leukemia
KM12 colon = test system: KM12 colon
KM20L2 colon = test system: KM20L2 colon
LOX IMVI melanoma = test system: LOX IMVI melanoma
M19-MEL melanoma = test system: M19-MEL melanoma
MALME-3M melanoma = test system: MALME-3M melanoma
MCF7 breast = test system: MCF7 breast
MOLT-4 leukemia = test system: MOLT-4 leukemia
NCI-H226 lung = test system: NCI-H226 lung
NCI-H23 lung = test system: NCI-H23 lung
NCI-H460 lung = test system: NCI-H460 lung
NCI-H522 lung = test system: NCI-H522 lung
NCI/ADR-RES ovarian = test system: NCI/ADR-RES ovarian
OVCAR-3 ovarian = test system: OVCAR-3 ovarian
OVCAR-4 ovarian = test system: OVCAR-4 ovarian
OVCAR-5 ovarian = test system: OVCAR-5 ovarian
OVCAR-8 ovarian = test system: OVCAR-8 ovarian
P388 leukemia = test system: P388 leukemia
P388/ADR leukemia = test system: P388/ADR leukemia
RPMI-8226 leukemia = test system: RPMI-8226 leukemia
RXF 393 renal = test system: RXF 393 renal
SF-268 CNS = test system: SF-268 CNS
SF-295 CNS = test system: SF-295 CNS
SF-539 CNS = test system: SF-539 CNS
SK-MEL-2 melanoma = test system: SK-MEL-2 melanoma
SK-MEL-28 melanoma = test system: SK-MEL-28 melanoma
SK-MEL-5 melanoma = test system: SK-MEL-5 melanoma
SK-OV-3 ovarian = test system: SK-OV-3 ovarian
SN12C renal = test system: SN12C renal
SN12K1 renal = test system: SN12K1 renal
SNB-75 CNS = test system: SNB-75 CNS
SNB-78 CNS = test system: SNB-78 CNS
SW-620 colon = test system: SW-620 colon
U251 CNS = test system: U251 CNS
UACC-257 melanoma = test system: UACC-257 melanoma
UACC-62 melanoma = test system: UACC-62 melanoma
UO-31 renal = test system: UO-31 renal

Q: C[C@@]12CC[C@H]3[C@@H]4CCC(=O)N[C@@]4(C)CC[C@@H]3[C@@]1(C)CC[C@H](OC(=O)Cc1ccc(N(CCCl)CCCl)cc1)C2 was tested. Which TGI (A498 renal) did it give?
A: 32.8 µM

Q: What about the TGI (A549 NSCLC) of the same compound?
A: 30.4 µM

Q: What about the TGI (CAKI-1 renal) of the same compound?
A: 30.5 µM

Q: And the TGI (CCRF-CEM leukemia)?
A: 35.1 µM

Q: And the TGI (COLO 205 colon)?
A: 38.3 µM

Q: And the TGI (DLD-1 colon)?
A: 47.1 µM

Q: What about the TGI (DMS 114 small cell lung) of the same compound?
A: 28.8 µM

Q: What about the TGI (DMS 273 small cell lung) of the same compound?
A: 30.3 µM

Q: What about the TGI (EKVX NSCLC) of the same compound?
A: 31.3 µM

Q: And the TGI (HCC-2998 colon)?
A: 31.2 µM

Q: What about the TGI (HCT-116 colon) of the same compound?
A: 29.9 µM

Q: What about the TGI (HCT-15 colon) of the same compound?
A: 36.1 µM

Q: What about the TGI (HOP-18 NSCLC) of the same compound?
A: 34 µM

Q: And the TGI (HOP-62 NSCLC)?
A: 31.1 µM

Q: What about the TGI (HOP-92 NSCLC) of the same compound?
A: 35.3 µM

Q: And the TGI (HT29 colon)?
A: 27.8 µM

Q: What about the TGI (IGROV1 ovarian) of the same compound?
A: 31.3 µM

Q: What about the TGI (K-562 leukemia) of the same compound?
A: 48.7 µM

Q: What about the TGI (KM12 colon) of the same compound?
A: 44.5 µM

Q: What about the TGI (KM20L2 colon) of the same compound?
A: 32.7 µM

Q: What about the TGI (LOX IMVI melanoma) of the same compound?
A: 27.8 µM

Q: And the TGI (M19-MEL melanoma)?
A: 32.8 µM

Q: And the TGI (MALME-3M melanoma)?
A: 36.1 µM

Q: What about the TGI (MCF7 breast) of the same compound?
A: 24.7 µM

Q: And the TGI (MOLT-4 leukemia)?
A: 38.8 µM

Q: What about the TGI (NCI-H226 lung) of the same compound?
A: 33.2 µM

Q: What about the TGI (NCI-H23 lung) of the same compound?
A: 30.3 µM

Q: And the TGI (NCI-H460 lung)?
A: 28.2 µM

Q: What about the TGI (NCI-H522 lung) of the same compound?
A: 34.4 µM

Q: What about the TGI (NCI/ADR-RES ovarian) of the same compound?
A: 37 µM

Q: What about the TGI (OVCAR-3 ovarian) of the same compound?
A: 34.6 µM

Q: What about the TGI (OVCAR-4 ovarian) of the same compound?
A: 32.2 µM

Q: What about the TGI (OVCAR-5 ovarian) of the same compound?
A: 31.5 µM

Q: What about the TGI (OVCAR-8 ovarian) of the same compound?
A: 33.1 µM

Q: What about the TGI (P388 leukemia) of the same compound?
A: 32 µM

Q: What about the TGI (P388/ADR leukemia) of the same compound?
A: 58.8 µM

Q: What about the TGI (RPMI-8226 leukemia) of the same compound?
A: 56 µM

Q: What about the TGI (RXF 393 renal) of the same compound?
A: 32 µM

Q: What about the TGI (SF-268 CNS) of the same compound?
A: 31.9 µM

Q: And the TGI (SF-295 CNS)?
A: 31.5 µM

Q: And the TGI (SF-539 CNS)?
A: 33.4 µM

Q: What about the TGI (SK-MEL-2 melanoma) of the same compound?
A: > 100 µM

Q: What about the TGI (SK-MEL-28 melanoma) of the same compound?
A: 33 µM

Q: And the TGI (SK-MEL-5 melanoma)?
A: 27.1 µM

Q: And the TGI (SK-OV-3 ovarian)?
A: 28.5 µM

Q: What about the TGI (SN12C renal) of the same compound?
A: 29.1 µM

Q: What about the TGI (SN12K1 renal) of the same compound?
A: 32.5 µM

Q: And the TGI (SNB-75 CNS)?
A: 33.5 µM

Q: And the TGI (SNB-78 CNS)?
A: 39.2 µM

Q: What about the TGI (SW-620 colon) of the same compound?
A: 34.1 µM

Q: And the TGI (U251 CNS)?
A: 28.8 µM

Q: And the TGI (UACC-257 melanoma)?
A: 55.8 µM

Q: What about the TGI (UACC-62 melanoma) of the same compound?
A: 30.5 µM

Q: What about the TGI (UO-31 renal) of the same compound?
A: 33.3 µM
